Results taken from ChEMBL document CHEMBL4311992, “Discovery of 3-(((9H-purin-6-yl)amino)methyl)-4,6-dimethylpyridin-2(1H)-one derivatives as novel tubulin polymerization inhibitors for treatment of cancer” (Eur J Med Chem, 2019).
Calls of active or inactive are those of the source. The rule behind the calls is not given here.

Columns and labels:
[1] = target: Tyrosine-protein kinase receptor TYRO3 (Homo sapiens) (UniProt Q06418); experiment: Inhibition of human RSE (451 to end residues) using KVEKIGEGTYGVVYK as substrate measured after 40 mins in presence of [gamma33P]ATP by scintillation counting method; parameters: scale not given: the % may be the effect or the level left
HCT-116 [2] = experiment: Induction of apoptosis in human HCT116 cells assessed as late apoptotic cells at 25 nM measured after 48 hrs by Annexin V-FITC/propidium iodide staining-based flow cytometry (reference value: 3.87%); assay type: functional
[3] = Toxicity in nude BALB/c mouse assessed as change in total protein level at 40 to 80 mg/kg, po once daily for 4 weeks measured post-last dose; assay type: organism-based; details: in vivo, 672 h
[4] = target: Calcium/calmodulin-dependent protein kinase type 1G (Homo sapiens) (UniProt Q96NX5); experiment: Inhibition of human CaMK1gamma; parameters: scale not given: the % may be the effect or the level left
[5] = target: CDK6/cyclin D3 (Homo sapiens) (UniProt P30281+Q00534); experiment: Inhibition of recombinant full-length human CDK6/cyclin D3 assessed as residual activity at 10 uM using histone H1 as substrate measured after 40 mins in presence of [gamma33P]ATP by scintillation counting method; assay type: protein-complex assay
[6] = target: Aurora kinase C (Homo sapiens) (UniProt Q9UQB9); experiment: Inhibition of recombinant human AURKC (35 to end residues) assessed as residual activity at 10 uM using AKRRRLSSLRA as substrate measured after 40 mins in presence of [gamma33P]ATP by scintillation counting method
[7] = test system: Fibroblast growth factor receptor 1 (Homo sapiens), P11362 [V561M]; experiment: Inhibition of recombinant human FGFR1 V561M mutant (456 to 765 residues) assessed as residual activity at 10 uM using GGEEEEYFELVKKKK as substrate measured after 40 mins in presence of [gamma33P]ATP by scintillation counting method
[8] = target: Glycogen synthase kinase-3 alpha (Homo sapiens) (UniProt P49840); experiment: Inhibition of recombinant human GSK3alpha (2 to end residues) assessed as residual activity at 10 uM using phospho GS2 peptide as substrate measured after 40 mins in presence of [gamma33P]ATP by scintillation counting method
[9] = target: Testis-specific serine/threonine-protein kinase 1 (Homo sapiens) (UniProt Q9BXA7); experiment: Inhibition of recombinant full-length human TSSK1 assessed as residual activity at 10 uM using KKKVSRSGLYRSPSMPENLNRPR as substrate measured after 120 mins in presence of [gamma33P]ATP by scintillation counting method
[10] = target: Tyrosine-protein kinase FRK (Homo sapiens) (UniProt P42685); experiment: Inhibition of human PTK5 (218 to end residues) using GGEEEEYFELVKKKK as substrate measured after 40 mins in presence of [gamma33P]ATP by scintillation counting method; parameters: scale not given: the % may be the effect or the level left
[11] = target: High affinity nerve growth factor receptor (Homo sapiens) (UniProt P04629); experiment: Inhibition of human TrkA (440 to end residues) using KKKSPGEYVNIEFG as substrate measured after 40 mins in presence of [gamma33P]ATP by scintillation counting method; parameters: scale not given: the % may be the effect or the level left
[12] = target: Casein kinase I isoform gamma-2 (Homo sapiens) (UniProt P78368); experiment: Inhibition of recombinant human CK1gamma2 (18 to end residues) assessed as residual activity at 10 uM using KRRRALS(p)VASLPGL as substrate measured after 40 mins in presence of [gamma33P]ATP by scintillation counting method
[13] = target: Serine/threonine-protein kinase Sgk3 (Homo sapiens) (UniProt Q96BR1); experiment: Inhibition of human SGK3 (119 to end residues) using GRPRTSSFAEGKK as substrate measured after 40 mins in presence of [gamma33P]ATP by scintillation counting method; parameters: scale not given: the % may be the effect or the level left
[14] = target: NUAK family SNF1-like kinase 1 (Homo sapiens) (UniProt O60285); experiment: Inhibition of recombinant human ARK5 (2 to end residues) assessed as residual activity at 10 uM using KKKVSRSGLYRSPSMPENLNRPR as substrate measured after 40 mins in presence of [gamma33P]ATP by scintillation counting method
[15] = target: Myosin light chain kinase 2, skeletal/cardiac muscle (Homo sapiens) (UniProt Q9H1R3); experiment: Inhibition of recombinant full-length human MYLK2 assessed as residual activity at 10 uM using KKLNRTLSFAEPG as substrate measured after 40 mins in presence of [gamma33P]ATP by scintillation counting method
[16] = target: Serine/threonine-protein kinase NIM1 (Homo sapiens) (UniProt Q8IY84); experiment: Inhibition of recombinant full-length human NIM1 assessed as residual activity at 10 uM using KKKVSRSGLYRSPSMPENLNRPR as substrate measured after 40 mins in presence of [gamma33P]ATP by scintillation counting method
[17] = target: CDC7/Cyclin B1 (Homo sapiens) (UniProt P14635+O00311); experiment: Inhibition of recombinant full-length human CDC7/cyclinB1 assessed as residual activity at 10 uM using Histone H1 as substrate measured after 120 mins in presence of [gamma33P]ATP by scintillation counting method; assay type: protein-complex assay
HCT-116 [18] = experiment: Induction of apoptosis in human HCT116 cells assessed as viable cells at 25 nM measured after 48 hrs by Annexin V-FITC/propidium iodide staining-based flow cytometry (reference value: 94.5%); assay type: functional; details: HCT-116, 48 h, read-out: Activity
SW-620 [19] = experiment: Induction of apoptosis in human SW620 cells assessed as increase in Bax expression up to 200 nM measured after 48 hrs by Western blot analysis; assay type: functional, cell-based
[20] = test system: Epidermal growth factor receptor (Homo sapiens), P00533 [T790M]; experiment: Inhibition of recombinant human EGFR T790M mutant (696 to end residues) assessed as residual activity at 10 uM using GGMEDIYFEFMGGKKK as substrate measured after 40 mins in presence of [gamma33P]ATP by scintillation counting method
CT26 = experiment: Antiproliferative activity against mouse CT26 cells assessed as reduction in cell viability after 72 hrs by MTT assay; assay type: functional, cell-based; details: CT26, 72 h
[21] = target: PAS domain-containing serine/threonine-protein kinase (Homo sapiens) (UniProt Q96RG2); experiment: Inhibition of recombinant human PASK (995 to end residues) assessed as residual activity at 10 uM using KKLNRTLSFAEPG as substrate measured after 40 mins in presence of [gamma33P]ATP by scintillation counting method
[22] = target: Serine/threonine-protein kinase DCLK3 (Homo sapiens) (UniProt Q9C098); experiment: Inhibition of recombinant human DCAMKL3 (345 to end residues) assessed as residual activity at 10 uM using KKLNRTLSFAEPG as substrate measured after 40 mins in presence of [gamma33P]ATP by scintillation counting method
SW-620 [23] = experiment: Induction of apoptosis in human SW620 cells assessed as necrotic cells at 100 nM measured after 48 hrs by Annexin V-FITC/propidium iodide staining-based flow cytometry (reference value: 2.71%); assay type: functional
[24] = target: Serine/threonine-protein kinase 24 (Homo sapiens) (UniProt Q9Y6E0); experiment: Inhibition of recombinant human MST3 (1 to 304 residues) assessed as residual activity at 10 uM using ERMRPRKRQGSVRRRV as substrate measured after 40 mins in presence of [gamma33P]ATP by scintillation counting method
Chain of Serine/threonine-protein kinase 24 (Homo sapiens) (Q9Y6E0 whole entry, looked up, the tested form may be a part): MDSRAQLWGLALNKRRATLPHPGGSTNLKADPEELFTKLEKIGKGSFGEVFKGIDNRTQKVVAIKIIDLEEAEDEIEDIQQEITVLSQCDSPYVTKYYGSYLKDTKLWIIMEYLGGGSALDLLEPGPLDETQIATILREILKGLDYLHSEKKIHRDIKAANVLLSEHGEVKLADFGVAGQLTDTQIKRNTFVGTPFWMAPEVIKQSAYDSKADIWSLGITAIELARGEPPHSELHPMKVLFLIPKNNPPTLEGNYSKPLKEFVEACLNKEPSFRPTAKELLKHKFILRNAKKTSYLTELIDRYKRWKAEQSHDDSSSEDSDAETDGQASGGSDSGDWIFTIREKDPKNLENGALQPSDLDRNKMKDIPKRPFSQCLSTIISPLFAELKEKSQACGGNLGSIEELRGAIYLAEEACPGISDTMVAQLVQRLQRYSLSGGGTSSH

Chain of Testis-specific serine/threonine-protein kinase 1 (Homo sapiens) (Q9BXA7 whole entry): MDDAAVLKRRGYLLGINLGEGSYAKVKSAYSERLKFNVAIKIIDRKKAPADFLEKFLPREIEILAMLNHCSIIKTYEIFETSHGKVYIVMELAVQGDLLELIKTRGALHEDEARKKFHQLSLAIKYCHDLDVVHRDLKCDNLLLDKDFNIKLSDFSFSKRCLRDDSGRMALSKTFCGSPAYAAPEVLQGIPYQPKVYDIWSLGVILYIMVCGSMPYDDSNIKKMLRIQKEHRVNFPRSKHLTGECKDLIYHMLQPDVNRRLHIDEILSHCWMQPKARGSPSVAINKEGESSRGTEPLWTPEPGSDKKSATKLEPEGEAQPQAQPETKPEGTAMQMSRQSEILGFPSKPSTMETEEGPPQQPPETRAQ
Chain of Aurora kinase C (Homo sapiens) (Q9UQB9 whole entry, the tested form may be a part): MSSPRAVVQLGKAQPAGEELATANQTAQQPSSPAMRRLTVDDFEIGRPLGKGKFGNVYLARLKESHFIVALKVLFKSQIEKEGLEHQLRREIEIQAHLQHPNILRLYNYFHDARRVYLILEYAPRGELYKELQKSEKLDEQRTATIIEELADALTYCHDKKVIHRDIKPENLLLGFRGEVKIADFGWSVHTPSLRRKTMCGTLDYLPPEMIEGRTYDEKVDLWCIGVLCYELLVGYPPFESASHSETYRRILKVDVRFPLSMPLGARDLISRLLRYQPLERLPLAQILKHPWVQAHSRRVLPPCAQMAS
Chain of Casein kinase I isoform gamma-2 (Homo sapiens) (P78368 whole entry, looked up, canonical isoform): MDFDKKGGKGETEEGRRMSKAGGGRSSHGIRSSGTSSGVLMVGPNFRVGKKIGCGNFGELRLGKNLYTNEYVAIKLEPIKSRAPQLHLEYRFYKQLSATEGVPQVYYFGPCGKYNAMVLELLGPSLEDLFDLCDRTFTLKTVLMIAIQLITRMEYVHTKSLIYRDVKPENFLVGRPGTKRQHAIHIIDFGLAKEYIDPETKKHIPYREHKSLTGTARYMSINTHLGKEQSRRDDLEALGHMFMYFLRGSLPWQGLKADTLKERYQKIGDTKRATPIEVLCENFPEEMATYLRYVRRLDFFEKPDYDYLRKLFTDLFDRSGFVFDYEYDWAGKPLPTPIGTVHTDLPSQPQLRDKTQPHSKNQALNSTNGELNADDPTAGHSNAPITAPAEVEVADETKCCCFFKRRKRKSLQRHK
Chain of PAS domain-containing serine/threonine-protein kinase (Homo sapiens) (Q96RG2 whole entry, the tested form may be a part): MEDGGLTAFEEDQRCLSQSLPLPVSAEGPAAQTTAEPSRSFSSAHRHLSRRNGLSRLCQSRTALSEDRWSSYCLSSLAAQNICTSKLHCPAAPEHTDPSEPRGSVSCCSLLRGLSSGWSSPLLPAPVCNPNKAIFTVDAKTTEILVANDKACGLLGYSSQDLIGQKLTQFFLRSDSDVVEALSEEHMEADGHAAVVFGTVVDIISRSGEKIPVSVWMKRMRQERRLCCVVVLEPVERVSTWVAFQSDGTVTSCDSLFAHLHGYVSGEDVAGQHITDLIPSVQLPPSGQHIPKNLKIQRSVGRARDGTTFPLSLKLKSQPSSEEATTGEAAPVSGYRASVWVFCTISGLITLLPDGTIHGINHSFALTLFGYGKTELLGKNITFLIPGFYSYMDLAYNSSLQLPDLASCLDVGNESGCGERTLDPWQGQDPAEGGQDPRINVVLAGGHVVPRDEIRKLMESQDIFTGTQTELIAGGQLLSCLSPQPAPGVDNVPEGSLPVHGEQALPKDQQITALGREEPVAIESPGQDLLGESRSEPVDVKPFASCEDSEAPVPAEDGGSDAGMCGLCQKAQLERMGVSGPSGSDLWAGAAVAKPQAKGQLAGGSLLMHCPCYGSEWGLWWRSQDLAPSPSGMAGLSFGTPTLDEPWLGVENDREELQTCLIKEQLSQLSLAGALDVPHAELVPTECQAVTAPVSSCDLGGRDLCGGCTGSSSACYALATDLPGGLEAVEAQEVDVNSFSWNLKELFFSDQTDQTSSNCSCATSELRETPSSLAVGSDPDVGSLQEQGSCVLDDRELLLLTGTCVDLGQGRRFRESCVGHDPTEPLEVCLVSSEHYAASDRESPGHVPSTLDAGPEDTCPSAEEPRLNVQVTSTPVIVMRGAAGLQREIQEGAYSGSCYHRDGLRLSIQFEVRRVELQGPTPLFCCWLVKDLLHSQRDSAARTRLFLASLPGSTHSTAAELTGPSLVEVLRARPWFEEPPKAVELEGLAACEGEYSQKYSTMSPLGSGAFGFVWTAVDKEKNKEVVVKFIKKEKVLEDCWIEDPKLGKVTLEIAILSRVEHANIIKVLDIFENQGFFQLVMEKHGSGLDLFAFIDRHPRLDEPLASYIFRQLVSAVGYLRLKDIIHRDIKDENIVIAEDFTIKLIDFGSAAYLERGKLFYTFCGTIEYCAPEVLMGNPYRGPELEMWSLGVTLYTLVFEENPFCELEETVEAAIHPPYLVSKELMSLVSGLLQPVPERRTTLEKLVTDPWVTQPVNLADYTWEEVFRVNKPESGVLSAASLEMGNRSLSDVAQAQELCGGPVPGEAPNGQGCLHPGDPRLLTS
Chain of Fibroblast growth factor receptor 1 (Homo sapiens), P11362 [V561M] (P11362 whole entry V561M, the tested form may be a part): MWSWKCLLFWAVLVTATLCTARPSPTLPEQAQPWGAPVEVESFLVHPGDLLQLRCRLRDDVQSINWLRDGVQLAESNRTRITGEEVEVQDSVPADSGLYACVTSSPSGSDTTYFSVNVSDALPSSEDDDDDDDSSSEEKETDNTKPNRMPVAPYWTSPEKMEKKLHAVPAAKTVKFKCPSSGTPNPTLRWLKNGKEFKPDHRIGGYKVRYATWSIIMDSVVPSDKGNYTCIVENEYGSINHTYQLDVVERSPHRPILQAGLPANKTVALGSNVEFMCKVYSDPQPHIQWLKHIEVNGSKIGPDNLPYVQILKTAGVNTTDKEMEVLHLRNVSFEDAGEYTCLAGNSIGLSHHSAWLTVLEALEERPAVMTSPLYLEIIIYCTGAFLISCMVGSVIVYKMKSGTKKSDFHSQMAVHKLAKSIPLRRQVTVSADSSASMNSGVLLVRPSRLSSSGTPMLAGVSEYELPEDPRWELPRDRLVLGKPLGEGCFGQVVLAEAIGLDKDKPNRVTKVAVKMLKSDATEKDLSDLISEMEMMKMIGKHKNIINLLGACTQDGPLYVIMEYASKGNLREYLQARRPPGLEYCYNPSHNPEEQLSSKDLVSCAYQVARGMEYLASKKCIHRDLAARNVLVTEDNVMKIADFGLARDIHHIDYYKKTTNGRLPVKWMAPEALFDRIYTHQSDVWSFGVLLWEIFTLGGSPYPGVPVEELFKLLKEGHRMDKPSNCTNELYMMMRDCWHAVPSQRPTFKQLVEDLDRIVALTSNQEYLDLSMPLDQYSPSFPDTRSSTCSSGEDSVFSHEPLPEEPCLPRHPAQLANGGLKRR
Chain of Serine/threonine-protein kinase NIM1 (Homo sapiens) (Q8IY84 whole entry): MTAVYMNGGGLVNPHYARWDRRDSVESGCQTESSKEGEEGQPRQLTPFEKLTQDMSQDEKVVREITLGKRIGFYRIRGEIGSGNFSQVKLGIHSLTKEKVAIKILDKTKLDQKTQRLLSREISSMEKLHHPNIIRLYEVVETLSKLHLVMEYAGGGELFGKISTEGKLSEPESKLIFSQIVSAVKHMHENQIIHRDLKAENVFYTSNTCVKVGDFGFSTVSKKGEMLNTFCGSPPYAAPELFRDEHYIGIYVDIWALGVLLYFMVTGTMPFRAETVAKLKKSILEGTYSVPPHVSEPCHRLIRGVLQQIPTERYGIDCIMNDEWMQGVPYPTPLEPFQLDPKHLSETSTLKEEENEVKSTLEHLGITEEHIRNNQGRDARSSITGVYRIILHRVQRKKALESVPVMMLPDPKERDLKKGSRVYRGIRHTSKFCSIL
Chain of Glycogen synthase kinase-3 alpha (Homo sapiens) (P49840 2-483 limits assumed): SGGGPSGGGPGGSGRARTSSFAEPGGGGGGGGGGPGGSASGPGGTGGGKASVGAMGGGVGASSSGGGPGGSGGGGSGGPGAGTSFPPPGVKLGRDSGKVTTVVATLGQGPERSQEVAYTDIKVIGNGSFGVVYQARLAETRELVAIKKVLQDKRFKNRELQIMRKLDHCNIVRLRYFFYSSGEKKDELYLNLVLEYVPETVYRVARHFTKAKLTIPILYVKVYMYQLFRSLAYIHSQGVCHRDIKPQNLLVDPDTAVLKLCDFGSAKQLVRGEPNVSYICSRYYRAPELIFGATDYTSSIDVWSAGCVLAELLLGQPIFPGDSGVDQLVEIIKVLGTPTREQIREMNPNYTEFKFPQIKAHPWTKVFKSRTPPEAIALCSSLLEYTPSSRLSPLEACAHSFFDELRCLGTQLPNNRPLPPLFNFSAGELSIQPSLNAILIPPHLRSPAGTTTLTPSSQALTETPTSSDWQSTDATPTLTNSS

Q: With `Cc1cc(C)c(CNc2nc(Cl)nc3c2ncn3C2CCCC2)c(=O)[nH]1` as the compound, how does the Activity [1] read?
A: The Activity was 126%.

Q: And the Activity (HCT-116 [2])?
A: The Activity was 17.1%.

Q: And the Activity [3]?
A: Its Activity is “Non-Toxic”.

Q: And the Activity [4]?
A: Its Activity is 126%.

Q: What about the Activity [5] of the same compound?
A: Its Activity is 98.5%.

Q: And the Activity [6]?
A: The Activity was 106%.

Q: What about the Activity [7] of the same compound?
A: Its Activity is 95.5%.

Q: And the Activity [8]?
A: Its Activity is 102%.

Q: And the Activity [9]?
A: Its Activity is 110%.

Q: What about the Activity [10] of the same compound?
A: The Activity was 102%.

Q: What about the Activity [11] of the same compound?
A: Its Activity is 92%.

Q: And the Activity [12]?
A: The Activity was 104%.

Q: What about the Activity [13] of the same compound?
A: Its Activity is 102%.

Q: What about the Activity [14] of the same compound?
A: Its Activity is 108%.

Q: What about the Activity [15] of the same compound?
A: Its Activity is 98%.

Q: And the Activity [16]?
A: The Activity was 106%.

Q: And the Activity [17]?
A: Its Activity is 102%.

Q: What about the viability at 0.025 µM (HCT-116 [18]) of the same compound?
A: The viability at 0.025 µM was 95.9%.

Q: And the Activity (SW-620 [19])?
A: The Activity was “Active”.

Q: What about the Activity [20] of the same compound?
A: Its Activity is 102%.

Q: And the IC50 (CT26)?
A: The IC50 was 45.5 nM.

Q: What about the Activity [21] of the same compound?
A: Its Activity is 100%.

Q: What about the Activity [22] of the same compound?
A: The Activity was 110%.

Q: And the Activity (SW-620 [23])?
A: The Activity was 6.55%.

Q: What about the Activity [24] of the same compound?
A: The Activity was 110%.
